These compounds were tested on rice cultivar 'CL272' (assay: Herbicide tolerance and susceptibility characteristics of rice variety 'CL272'). Conditions: at levels of the herbicide that would normally inhibit the growth of a rice plant.
Format: in vivo, Oryza sativa
Text: Among others, the herbicide tolerance and susceptibility characteristics of ‘CL272’ include or are expected to include the following. These characteristics are in some cases based on actual observations to date, and in other cases reflect assumptions based on direct descent from ‘CL161’: […]
`Cc1cnc(C2=NC(=O)C(C)(C(C)C)N2)c(C(=O)O)c1` (centres unmarked) [imazapic] was tested, and the “response of 'CL272' rice to the herbicide (resistant / sensitive)” value (“response … (resistant / sensitive)” below) was “resistant”. For `COC(=O)c1ccccc1S(=O)(=O)NC(=O)Nc1nc(C)cc(C)n1` [sulfometuron methyl], the “response … (resistant / sensitive)” value was “sensitive”. `CCc1cnc(C2=NC(C)(C(C)C)C(=O)N2)c(C(=O)O)c1` (centres unmarked) [imazethapyr] was tested, and the “response … (resistant / sensitive)” value was “resistant”. `COC(=O)c1ccccc1S(=O)(=O)NC(=O)N(C)c1nc(C)nc(OC)n1` [tribenuron methyl] was tested, and the “response … (resistant / sensitive)” value was “resistant”. With `CC(C)C1(C)N=C(c2nc3ccccc3cc2C(=O)O)NC1=O` (centres unmarked) [imazaquin] the “response … (resistant / sensitive)” value was “resistant”. In the case of `COc1cc(OC)nc(NC(=O)NS(=O)(=O)c2ncccc2C(=O)N(C)C)n1` [nicosulfuron], the “response … (resistant / sensitive)” value was “resistant”. In the case of `CC(C)C1(C)N=C(c2ncccc2C(=O)O)NC1=O` (centres unmarked) [imazapyr], the “response … (resistant / sensitive)” value was “resistant”. `CCOC(=O)c1ccccc1S(=O)(=O)NC(=O)Nc1nc(Cl)cc(OC)n1` [chlorimuron ethyl] was tested, and the “response … (resistant / sensitive)” value was “sensitive”. With `COC(=O)c1ccccc1S(=O)(=O)NC(=O)Nc1nc(C)nc(OC)n1` [metsulfuron methyl] the “response … (resistant / sensitive)” value was “resistant”. With `CCS(=O)(=O)c1cccnc1S(=O)(=O)NC(=O)Nc1nc(OC)cc(OC)n1` [rimsulfuron] the “response … (resistant / sensitive)” value was “sensitive”. For `COCc1cnc(C2=NC(C)(C(C)C)C(=O)N2)c(C(=O)O)c1` (centres unmarked) [imazamox], the “response … (resistant / sensitive)” value was “resistant”. `COC(=O)c1sccc1S(=O)(=O)NC(=O)Nc1nc(C)nc(OC)n1` [thifensulfuron methyl] was tested, and the “response … (resistant / sensitive)” value was “resistant”.

Same assay, conditions: in vivo
`CCc1cnc(C2=NC(C)(C(C)C)C(=O)N2)c(C(=O)O)c1` (centres unmarked) [imazethapyr] was tested, and the “resistance of 'CL272' rice to imidazolinone herbicides, general statement” value was “highly resistant”. `COCc1cnc(C2=NC(C)(C(C)C)C(=O)N2)c(C(=O)O)c1` (centres unmarked) [imazamox] was tested, and the “resistance of 'CL272' rice to imidazolinone herbicides, general statement” value was “highly resistant”.

Source: patent US11006600B2, “Rice cultivar designated ‘CL272’” (Board of Supervisors of Louisiana State University and …, priority 2016, dated 2021)
